This is an account of results in patent US20260159826A1, “METHOD OF MODIFYING CELLS” (ROYAL MELBOURNE INSTITUTE OF TECHNOLOGY, priority 2022, published 2026).

For test [1], the system named is HUVEC monolayers. The experiment in a line: VE-cadherin remodelling, CAB formation, linearity index and AJ length in SRBW mechanostimulated cells with pathway inhibitors. To be noted: for Linearity index / AJ length (adhesion site length) / CAB formation: SRBW 8 mins at 1.5 W, GGTI-298 15 μM, NSC23766 10 μM; for Linearity index / AJ length (adhesion site length): 30 mins post exposure; for Linearity index: FIG. 6(b); for AJ length (adhesion site length): FIG. 6(c). The class given is cell-based, human.

The subject of test [2] is HUVEC monolayers. The experiment in a line: Intracellular cAMP (cyclic AMP XP assay) in SRBW mechanostimulated cells with Ca2+ inhibitors and chelators. The class given is cell-based, human. To be noted: for cAMP release: SRBW pretreatment in the presence of extracellular calcium, then sequential treatment, FIG. 2(e-iv), 2(e-v); for cAMP levels under SRBW mechanostimulation: pretreatment with BAPTA-AM and TPEN together, FIG. 2(e-ii). The protocol: (§1) Endothelial cells were cultured in Endothelial Cell Growth Medium-2 (EGM™2) BulletKit™ in a humidified incubator maintained at 37° C. and 5% CO2. The cells were grown in a standard T25 flask until they reached 80-90% confluency, following which they were detached using 0.05% trypsin-EDTA, reseeded in the culture plates at a density of 5000 cells/cm2 and incubated until they reached 90-95% confluency. The confluent monolayer is then exposed to the SRBW irradiation at the prescribed input power and duration. The cells were immediately processed for analysis upon removal of the acoustic field at various post-exposure incubation timepoints.
cAMP concentrations were measured through a cyclic AMP XP™ assay. Briefly, the EC monolayers were washed in Tyrode's buffer (137mMsodium chloride, 12mMsodium bi-carbonate, 5.5 mM glucose, 2 mM potassium chloride, 1mMmagnesium chloride and 0.3 mM disodium hydrogen phosphate) at pH 7.4 supplemented with […] IBMX—a phosphodiesterase inhibitor, to prevent the hydrolysis of cAMP. The cells were then exposed to the SRBW followed by incubation at different time points, after which the cells were lysed in 100 μl of lysis buffer that was supplied with the kit. 25 μl of the cell lysate and HRP-linked cAMP solution was subsequently transferred into the cAMP assay microtiter plates provided and incubated for 3 hrs at room temperature. Following incubation, the plate was washed four times and the liquid discarded. 100 μl of the supplied 3,3′,5,5″-tetramethylbenzidine (TMB) was then added and the solution incubated in the dark for 15 mins. The reaction was ceased by adding 100 μl of the provided STOP solution and its absorbance measured at 450 nm using a spectrophotometric plate reader (CLARIOstar, BMG LabTech, Mornington, VIC, Australia). The average of three measurements per treatment group was taken for cells from each individual culture, from which the cAMP concentrations can be calculated using a standard curve.

The test system of the next test is THP-1 cells. As to the kind of experiment: Wash assay (adherence assay) of SRBW stimulated monocytes pretreated with inhibitors/chelators. The class given is cell-based. To be noted: SRBW Treatment 4, 36 hours post exposure, BAPTA-AM 20 μM, Thapsigargin 300 nM, TPEN 1 mM, GGTI-298 15 μM, HJC0197 25 μM, FIG. 18, 19. As to the method:
Cell culture and Mechanostimulation: THP-1 cells were obtained from CellBank (Children Medical Research institute, NSW) and grown in suspension in RPMI+Glutamax supplemented with 10% (v/v) heat-inactivated FBS with 1% penicillin-streptomycin in a humidified 37° C., 5% CO2 incubator. Low passage (passage 15 or less) cells were seeded at cell density ranging from 0.5×10^5-0.5×10^6 per cm^2. The cells were then stimulated with SRBW at a frequency of 10 Mhz and at the indicated input power and duration. The cells were stimulated and processed at different post-exposure incubation times (24 h, 36 h, 48 h, 72 h, Day 5, Day 7, Day 9).
Wash Assay: Control (untreated) and treated cells were initially characterised by wash-assay or adherence assay. Undifferentiated THP1 cells were non-adherent cells. Accordingly, cells were initially characterised by determining the percentage of adherent cells. The spent media from control and treated wells were carefully collected into labelled centrifuge tubes. The wells were washed three times with media. After each wash, the wash media was collected into corresponding centrifuge tubes. The tubes were then centrifuged at 250×g for 5 minutes. The supernatant was carefully removed, and the pellet was homogeneously mixed with 1×PBS. The cells collected from spent and wash media were counted trypan blue exclusion assay using a hemocytometer. The percentage of adherent cells was calculated by (number of cells from control wells—number of cells from treated wells/number of cells from control wells)×100. The viability was also determined using the same. The change in the cellular morphology was also recorded using Nikon.

In the next test the test system is endothelial cells. The experiment in a line: Stress fibre (SF) formation after SRBW exposure under ROCK inhibition. The class given is cell-based, human. To be noted: initial sonochallenge phase, early times (<0.3 hrs) after SRBW; data not shown.
For test [3], the system named is HUVEC monolayers. The class given is cell-based, human. To be noted: SRBW 8 mins at 1.5 W; in the presence of piezo channel inhibitor; FIG. 4(b). The protocol: as §1
Free cytosolic calcium levels were determined using the fluorescent calcium indicator Fura-2AM. In brief, the EC monolayers were incubated in […] Fura-2AM in Opti-MEM™ reduced serum medium supplemented with 2% (vol/vol) heat-inactivated FBS at 37° C. in the dark. […] The fluorescence emission intensity at 510 nm in individual wells at excitation wavelengths of 340 and 380 nm were measured using a spectrophotometric plate reader (CLARIOstar® BMG LabTech, Mornington, VIC, Australia). The ratio of Fura-2 AM fluorescence emission in response to 340 nm and 380 nm excitation (340/380) was calculated and expressed in terms of the fold change with respect to that of the respective control (unexcited) cells. […]

Consider `CCN(CC)CCCC(C)Nc1nc(C)cc(Nc2ccc3nc(C)cc(N)c3c2)n1.Cl.Cl.Cl` (racemic) [NSC23766, N6-[2-(4-diethylamino-1-methyl-butylamino)-6-methyl-pyrimidin-4-yl]-2-methyl-quinoline-4,6-diamine trihydrochloride], for which, in the test on HUVEC monolayers [1], the Linearity index entry is recorded as “departure from linearity” and the “AJ length (adhesion site length)” value is “increased adhesion site length”. In addition, the CAB formation result with HUVEC monolayers [1] (data not shown) is reported as “only limited CAB formation”.
For `CC(=O)OCOC(=O)CN(CC(=O)OCOC(C)=O)c1ccccc1OCCOc1ccccc1N(CC(=O)OCOC(C)=O)CC(=O)OCOC(C)=O` [BAPTA-AM, 1,2-bis(2-aminophenoxy)ethane-N,N,N′,N′-tetraacetic acid tetrakis(acetoxymethyl ester)], in the test with HUVEC monolayers [2], the cAMP release result was “not suppressed” and the “cAMP levels under SRBW mechanostimulation” value is “increased under the SRBW mechanostimulation only when extracellular calcium is present”. In the test with THP-1 cells, the “number of adherent cells” value is on record as “reduced significantly”.
`COC(=O)[C@H](CC(C)C)NC(=O)c1ccc(NC[C@@H](N)CS)cc1-c1cccc2ccccc12.O.O=C(O)C(F)(F)F` [GGTI-298, N-[[4-(2-(R)-amino-3-mercaptopropyl)amino]-2-naphthylbenzoyl]leucine methyl ester trifluoroacetate salt hydrate]: the “number of adherent cells” value in the test on THP-1 cells is given as “significantly reduced”. Besides, in the test with HUVEC monolayers [1], the Linearity index entry is “departure from linearity” and the “AJ length (adhesion site length)” value is “increased adhesion site length”. For the same compound, in the test on HUVEC monolayers [1] (data not shown), the CAB formation entry is “only limited CAB formation”.
For `Cc1ccc(C)c(CSc2nc(C3CCCC3)c(C#N)c(=O)[nH]2)c1` [HJC0197, 4-cyclopentyl-2-[[(2,5-dimethylphenyl)methyl]thio]-1,6-dihydro-6-oxo-5-pyrimidinecarbonitrile], the “number of adherent cells” value in the test on THP-1 cells is reported as “significantly reduced”.
As to `CCCCCCOC(=O)[C@]1(O)C[C@H]2O[C@]1(C)n1c3ccccc3c3c4c(c5c6ccccc6n2c5c31)C(=O)NC4` [KT5720, (9S,10S,12R)-2,3,9,10,11,12-hexahydro-10-hydroxy-9-methyl-1-oxo-9,12-epoxy-1H-diindolo[1,2,3-fg:3′,2′,1′-kl]pyrrolo[3,4-i][1,6]benzodiazocine-10-carboxylic acid hexyl ester], the “VE-cadherin remodelling and CAB formation” value with HUVEC monolayers [1] (treated prior to SRBW mechanostimulation, data not shown) is “quelled”.
Take `c1ccc(CN(CCN(Cc2ccccn2)Cc2ccccn2)Cc2ccccn2)nc1` [TPEN, N,N,N′,N′-tetrakis(2-pyridinylmethyl)-1,2-ethanediamine]: in the test on HUVEC monolayers [2], the cAMP release result is listed as “affected” and the “cAMP levels under SRBW mechanostimulation” value is reported as “increased under the SRBW mechanostimulation only when extracellular calcium is present”. Further, the “number of adherent cells” value in the test with THP-1 cells is “failed to transform to adherent cells”.
Consider `C[C@@H](N)[C@H]1CC[C@H](C(=O)Nc2ccncc2)CC1.Cl.Cl` [Y27632, (R)-(+)-trans-4-(1-aminoethyl)-N-(4-pyridyl)cyclohexanecarboxamide dihydrochloride], for which the “stress fibre (SF) formation” value in the test on endothelial cells was “SF attenuation”.
`C[C@H](CCC(=O)O)C[C@H](C)C[C@H](C)C(=O)/C=C(\O)[C@H](C)C[C@H](C)C/C=C/[C@@H](C)[C@@H](O)[C@@H](C)[C@@H](O)C[C@@H]1CC[C@@](C)([C@H]2CC[C@@](C)([C@@H](C)O)O2)O1` [ionomycin]: the cAMP release result in the test on HUVEC monolayers [2] is reported as “affected”. Further, the cAMP levels result with HUVEC monolayers [2] (SRBW pretreatment, then chelation/inhibition, then ionomycin added, FIG. 2(e-iii), 40-50 mins) was “cAMP levels were observed to rise”.
`N.N.N.N.N.N.N.N.N.N.N.N.N.N.[Cl-].[Cl-].[Cl-].[Cl-].[Cl-].[Cl-].[O-2].[O-2].[Ru+3].[Ru+3].[Ru+4]` [ruthenium red]: the “intracellular calcium under the high frequency excitation” value in the test with HUVEC monolayers [3] is recorded as “abatement of intracellular calcium”.
